Measured values as given in patent publication US7932271B2, “Heterocyclic methyl sulfone derivative” (Daiichi Pharmaceutical Co., Ltd., priority 2003, dated 2011).
Where a name gives a salt, the structure may show the parent alone.

Row | melting point | SMILES
1 | 146 to 148 °C | COCCCNc1cc(C(c2cc(F)ccc2F)S(=O)(=O)c2ccc(Cl)cc2)c(Cl)cn1 (stereo not drawn) [Example 184]
2 | 200 to 205 °C | O=C(O)CCNc1cc(C(c2cc(F)ccc2F)S(=O)(=O)c2ccc(Cl)cc2)c(Cl)cn1 (stereo not drawn) (hydrate or solvate) [Example 155, 3-[[5-Chloro-4-[(4-chlorophenylsulfonyl)-(2,5-difluorophenyl)methyl]pyridin-2-yl]amino]propionic acid]
3 | 214 to 217 °C | Cc1cnc(NS(C)(=O)=O)cc1C(c1cc(F)ccc1F)S(=O)(=O)c1ccc(Cl)cc1 (stereo not drawn) [Example 212, N-[4-[(4-Chlorophenylsulfonyl)(2,5-difluorophenyl)methyl]-5-methylpyridin-2-yl]methanesulfonamide]
4 | 163 to 166 °C | NCCNc1cc(C(c2cc(F)ccc2F)S(=O)(=O)c2ccc(Cl)cc2)c(Cl)cn1 (stereo not drawn) (as salt: hydrochloride) [Example 193, N-[5-Chloro-4-[(4-chlorophenylsulfonyl)-(2,5-difluorophenyl)methyl]pyridin-2-yl]ethane-1,2-diamine dihydrochloride]
5 | 113 to 115 °C | O=S(=O)(c1ccc(Cl)cc1)C(c1cc(F)ccc1F)c1cc(NCCOCCO)ncc1Cl (stereo not drawn) [Example 183, 2-[2-[5-Chloro-4-[(4-chlorophenylsulfonyl)(2,5-difluorophenyl)methyl]pyridin-2-ylamino]ethoxy]ethanol]
6 | 105 to 107 °C | Cc1cnc(C(=O)O)cc1C(c1cc(F)ccc1F)S(=O)(=O)c1ccc(Cl)cc1 (stereo not drawn) [Example 209, 4-[(4-Chlorophenylsulfonyl)(2,5-difluorophenyl)methyl]-5-methylpicolinic acid]
7 | 172 to 173 °C | O=S(=O)(c1ccc(Cl)cc1)C(c1cc(F)ccc1F)c1cc(CO)ncc1Br (stereo not drawn) [Example 228, [5-Bromo-4-[(4-chlorophenylsulfonyl)(2,5-difluorophenyl)methyl]pyridin-2-yl]methanol]
8 | 179 to 181 °C | Nc1cc(C(c2c(F)cccc2F)S(=O)(=O)c2ccc(Cl)cc2)c(Cl)cn1 (stereo not drawn) [Example 296, 5-Chloro-4-[(4-chlorophenylsulfonyl)(2,6-difluorophenyl)methyl]pyridin-2-ylamine]

Further lines, the compound ahead of its results:

Row | SMILES | melting point
9 | CN1CCC(C(c2ccncc2)S(=O)(=O)c2ccc(Cl)cc2)CC1 (stereo not drawn) [Example 5, 4-[(4-Chlorophenylsulfonyl)(1-methylpiperidin-4-yl)methyl]pyridine] | 176 to 177 °C
10 | O=S(=O)(c1ccc(Cl)cc1)C(c1ccccn1)c1cc(F)ccc1F (stereo not drawn) [Example 13, 2-[[(4-Chlorophenyl)sulfonyl]-(2,5-difluorophenyl)methyl]pyridine] | 171 to 172 °C
11 | O=S(=O)(c1ccc(Cl)cc1)C(c1cccc(CCc2ccccn2)n1)c1cc(F)ccc1F (stereo not drawn) [Example 152, 2-[(4-Chlorophenylsulfonyl)(2,5-difluorophenyl)methyl]-6-(2-pyridin-2-ylethyl)pyridine] | 88 to 89 °C
12 | CN1CCN(C(=O)CCc2cnc(C(c3cc(F)ccc3F)S(=O)(=O)c3ccc(Cl)cc3)c(F)c2)CC1.Cl (stereo not drawn) | 243 to 245 °C
13 | O=C(Nc1ccon1)c1cnc(C(c2cc(F)ccc2F)S(=O)(=O)c2ccc(Cl)cc2)c(F)c1 (stereo not drawn) [Example 129, 6-(4-Chlorophenylsulfonyl)(2,5-difluorophenyl)methyl-5-fluoro-N-isoxazol-3-ylnicotinamide] | 200 to 202 °C
14 | O=S(=O)(c1ccc(Cl)cc1)C(c1cncnc1)c1cc(F)ccc1F (stereo not drawn) [Example 21, 5-[[(4-Chlorophenyl)sulfonyl]-(2,5-difluorophenyl)methyl]pyrimidine] | 136 to 137 °C
15 | O=S(=O)(c1ccc(Cl)cc1)C(c1cc(F)ccc1F)c1cc(Cl)ncc1Cl (stereo not drawn) (hydrate or solvate) [Example 57, 2,5-Dichloro-4-[(4-chlorophenylsulfonyl)-(2,5-difluorophenyl)methyl]pyridine 0.5 hydrate] | 147 to 148 °C
